Experimental data reported in the CheMixHub viscosity set.
± gives the uncertainty stated by the source.

Assay: xn = mol fraction of the nth substance listed

Nc1ccccc1 + CS(C)=O
viscosity [mPa·s], 101 kPa
Details	298.15 K	302.4 K	308.15 K	318.15 K
x2 = 0.0786	–	5.806	–	–
x2 = 0.1	3.83 ± 0.039	–	2.841 ± 0.03	2.194 ± 0.023
x2 = 0.2	3.94 ± 0.04	–	2.925 ± 0.031	2.259 ± 0.024
x2 = 0.2281	–	3.998	–	–
x2 = 0.3	3.99 ± 0.04	–	2.98 ± 0.031	2.3 ± 0.025
x2 = 0.4	3.938 ± 0.039	–	2.958 ± 0.031	2.294 ± 0.025
x2 = 0.4344	–	4.788	–	–
x2 = 0.5	3.756 ± 0.037	–	2.839 ± 0.029	2.232 ± 0.024
x2 = 0.5614	–	5.863	–	–
x2 = 0.6	3.445 ± 0.034	–	2.644 ± 0.027	2.106 ± 0.022
x2 = 0.6809	–	6.538	–	–
x2 = 0.7	3.055 ± 0.03	–	2.397 ± 0.024	1.938 ± 0.02
x2 = 0.8	2.664 ± 0.026	–	2.134 ± 0.021	1.746 ± 0.018
x2 = 0.8473	–	6.37	–	–
x2 = 0.9	2.313 ± 0.022	–	1.886 ± 0.019	1.529 ± 0.015

CCC(O)CO (stereo not drawn) + O=C1CCCN1
101.33 kPa
Details	viscosity [mPa·s]
298.15 K, x2 = 0.0555	46.5 ± 0.97
298.15 K, x2 = 0.09272	42.92 ± 0.89
298.15 K, x2 = 0.2043	34.62 ± 0.72
298.15 K, x2 = 0.2943	29.84 ± 0.63
298.15 K, x2 = 0.4023	25.54 ± 0.55
298.15 K, x2 = 0.508	22.41 ± 0.48
298.15 K, x2 = 0.6045	20.25 ± 0.43
298.15 K, x2 = 0.6902	18.59 ± 0.39
298.15 K, x2 = 0.7968	16.74 ± 0.35
298.15 K, x2 = 0.8891	15.2 ± 0.32
298.15 K, x2 = 0.9416	14.65 ± 0.31
308.15 K, x2 = 0.04722	26.34 ± 0.54
308.15 K, x2 = 0.1008	23.83 ± 0.49
308.15 K, x2 = 0.2171	19.71 ± 0.41
308.15 K, x2 = 0.2992	17.63 ± 0.37
308.15 K, x2 = 0.6065	12.84 ± 0.27
308.15 K, x2 = 0.6909	11.99 ± 0.25
308.15 K, x2 = 0.8019	10.94 ± 0.23
308.15 K, x2 = 0.886	10.18 ± 0.21
308.15 K, x2 = 0.9402	9.675 ± 0.2
318.15 K, x2 = 0.04672	15.75 ± 0.32
318.15 K, x2 = 0.07619	15.07 ± 0.31
318.15 K, x2 = 0.2048	12.57 ± 0.26
318.15 K, x2 = 0.289	11.39 ± 0.24
318.15 K, x2 = 0.4043	10.2 ± 0.22
318.15 K, x2 = 0.4992	9.411 ± 0.2
318.15 K, x2 = 0.6031	8.699 ± 0.18
318.15 K, x2 = 0.6923	8.26 ± 0.17
318.15 K, x2 = 0.7988	7.666 ± 0.16
318.15 K, x2 = 0.8817	7.237 ± 0.15
318.15 K, x2 = 0.9477	6.892 ± 0.14

COCCOCCOCCO + CCCC(C)O
viscosity [mPa·s], 101 kPa
Details	x1 = 0.0047	x1 = 0.0177	x1 = 0.0299	x1 = 0.0546	x1 = 0.0827	x1 = 0.1089
298.15 K	3.349 ± 0.059	3.306 ± 0.058	3.258 ± 0.057	3.191 ± 0.056	3.143 ± 0.055	3.122 ± 0.055
308.15 K	2.319 ± 0.041	2.316 ± 0.041	2.3 ± 0.041	2.288 ± 0.041	2.285 ± 0.041	2.295 ± 0.041
318.15 K	1.672 ± 0.03	1.676 ± 0.03	1.684 ± 0.031	1.695 ± 0.031	1.712 ± 0.031	1.732 ± 0.031

Nc1ccccc1 + COCCO
303.15 K, 101 kPa
Details	viscosity [mPa·s]
x1 = 0.0881	2.156 ± 0.04
x1 = 0.1786	2.351 ± 0.043
x1 = 0.2716	2.555 ± 0.047
x1 = 0.3671	2.757 ± 0.05
x1 = 0.4652	2.955 ± 0.054
x1 = 0.5661	3.129 ± 0.057
x1 = 0.67	3.284 ± 0.06
x1 = 0.7768	3.437 ± 0.062
x1 = 0.8867	3.591 ± 0.065

CCNCC + CCCCCCCCCCO
viscosity [mPa·s], 101 kPa
Details	x1 = 0.5973	x2 = 0.0971	x2 = 0.1985	x2 = 0.2971	x2 = 0.4003	x2 = 0.5148	x2 = 0.6024	x2 = 0.7216	x2 = 0.8014	x2 = 0.8997
298.15 K	–	0.472 ± 0.004	0.762 ± 0.006	1.184 ± 0.009	1.834 ± 0.014	2.865 ± 0.022	3.979 ± 0.03	5.858 ± 0.041	7.47 ± 0.05	9.664 ± 0.063
303 K	2.015 ± 0.19	–	–	–	–	–	–	–	–	–
313.15 K	–	0.378 ± 0.004	0.576 ± 0.005	0.851 ± 0.007	1.254 ± 0.01	1.87 ± 0.02	2.556 ± 0.019	3.617 ± 0.027	4.497 ± 0.033	5.631 ± 0.04

COCCOCCOCCO + CCC(C)O
viscosity [mPa·s], 101 kPa
Details	x1 = 0.0039	x1 = 0.0079	x1 = 0.0151	x1 = 0.0318	x1 = 0.0511	x1 = 0.08	x1 = 0.1038
298.15 K	3.101 ± 0.055	3.074 ± 0.054	3.046 ± 0.054	2.988 ± 0.053	2.947 ± 0.052	2.893 ± 0.051	2.942 ± 0.052
308.15 K	2.163 ± 0.039	2.161 ± 0.039	2.148 ± 0.038	2.133 ± 0.038	2.132 ± 0.038	2.128 ± 0.038	2.186 ± 0.039
318.15 K	1.565 ± 0.029	1.562 ± 0.028	1.564 ± 0.028	1.569 ± 0.029	1.577 ± 0.029	1.611 ± 0.029	1.674 ± 0.03

CC(C)(C)O + Cc1ccccc1
viscosity [mPa·s]
Details	298.15 K	303.15 K	308.15 K	313.15 K	318.15 K
101 kPa, x2 = 0.1121	2.432 ± 0.085	1.991 ± 0.07	1.63 ± 0.058	1.282 ± 0.047	1.05 ± 0.039
101 kPa, x2 = 0.1785	1.717 ± 0.061	1.462 ± 0.053	1.245 ± 0.045	1.027 ± 0.038	0.8744 ± 0.033
101 kPa, x2 = 0.3151	1.113 ± 0.041	0.9909 ± 0.037	0.8824 ± 0.034	0.7677 ± 0.03	0.6837 ± 0.027
101 kPa, x2 = 0.3919	0.9507 ± 0.036	0.8583 ± 0.033	0.7749 ± 0.03	0.6855 ± 0.027	0.6188 ± 0.025
101 kPa, x2 = 0.4958	0.7975 ± 0.031	0.7306 ± 0.029	0.6693 ± 0.027	0.6025 ± 0.024	0.552 ± 0.023
101.33 kPa, x2 = 0.1003	–	1.981 ± 0.031	1.622 ± 0.026	1.328 ± 0.021	–
101.33 kPa, x2 = 0.1723	–	1.455 ± 0.023	1.239 ± 0.02	1.059 ± 0.017	–
101.33 kPa, x2 = 0.3109	–	0.986 ± 0.016	0.878 ± 0.015	0.781 ± 0.013	–
101.33 kPa, x2 = 0.3886	–	0.854 ± 0.014	0.771 ± 0.013	0.696 ± 0.012	–
101.33 kPa, x2 = 0.4942	–	0.727 ± 0.013	0.666 ± 0.012	0.611 ± 0.011	–
101.33 kPa, x2 = 0.6059	–	0.644 ± 0.011	0.594 ± 0.011	0.548 ± 0.01	–
101.33 kPa, x2 = 0.7118	–	0.588 ± 0.011	0.547 ± 0.01	0.51 ± 0.007	–
101.33 kPa, x2 = 0.8135	–	0.549 ± 0.01	0.518 ± 0.01	0.486 ± 0.007	–
101.33 kPa, x2 = 0.9107	–	0.521 ± 0.01	0.49 ± 0.007	0.46 ± 0.007	–
